From PMC11659602, “Discovering covalent cyclic peptide inhibitors of peptidyl arginine deiminase 4 (PADI4) using mRNA-display with a genetically encoded electrophilic warhead” (Communications Chemistry, 2024)
Several values for one entry are separate records, joined by “and”; a condition that tells them apart may be missing. Equal entries are not always repeated. Where two headings read alike, the source gives them in different places. Where a SMILES comes first, the peptide text is derived from it. Bridges are numbered along the chain shown (N, C = ends). [ ]: non-standard residue; d: D form. Orn(fluoroacetimidoyl) = N=C(CF)NCCC[C@H](N)C(=O)O

Legend:
[1] = molecular target: T1, PADI4 (Homo sapiens, UniProt Q9UM07); assay: COLDER inhibition assay, BAEE substrate, with or without 1 h preincubation; format: biochemical; settings: for IC50: COLDER; for remaining activity at 0.003 µM: peptide 0.003 µM; for remaining activity at 0.01 µM: peptide 0.01 µM; for remaining activity at 0.03 µM: peptide 0.03 µM; for remaining activity at 0.1 µM: peptide 0.1 µM; for remaining activity at 0.3 µM: peptide 0.3 µM; for remaining activity at 1 µM: peptide 1 µM; for remaining activity at 3 µM: peptide 3 µM; for remaining activity at 10 µM: peptide 10 µM
T1 construct: His6; made in house
T1 sequence (Q9UM07 whole entry): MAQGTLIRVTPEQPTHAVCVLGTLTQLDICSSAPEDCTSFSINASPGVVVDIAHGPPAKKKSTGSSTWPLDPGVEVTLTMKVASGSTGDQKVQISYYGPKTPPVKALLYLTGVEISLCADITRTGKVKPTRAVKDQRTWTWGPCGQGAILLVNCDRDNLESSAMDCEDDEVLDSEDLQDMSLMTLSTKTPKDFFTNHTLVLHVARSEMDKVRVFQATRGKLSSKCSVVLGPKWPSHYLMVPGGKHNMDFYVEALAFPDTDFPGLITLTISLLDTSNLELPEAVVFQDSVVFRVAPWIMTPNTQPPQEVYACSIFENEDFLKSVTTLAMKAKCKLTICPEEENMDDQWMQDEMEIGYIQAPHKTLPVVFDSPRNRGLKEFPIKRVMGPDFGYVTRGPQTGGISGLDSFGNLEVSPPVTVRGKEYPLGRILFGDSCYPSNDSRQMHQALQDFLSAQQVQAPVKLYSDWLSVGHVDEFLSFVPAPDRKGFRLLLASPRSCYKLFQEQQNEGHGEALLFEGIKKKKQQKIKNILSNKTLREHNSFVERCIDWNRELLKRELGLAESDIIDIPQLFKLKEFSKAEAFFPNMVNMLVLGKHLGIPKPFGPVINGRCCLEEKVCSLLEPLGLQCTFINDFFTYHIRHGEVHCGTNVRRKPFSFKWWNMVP
Protocol: PADI4 citrullination activity was analysed using the COLDER assay in 96-well plates. Peptide dilutions were prepared from a 500 µM stock, to give a 10 times concentrated dilution series (500 µM, 300 µM, 100 µM, 30 µM, 10 µM, 3 µM, 1 µM, 0.3 µM, 0.1 µM and 0.03 µM) in COLDER buffer (50 mM HEPES, 150 mM NaCl and 2 mM DTT, pH 7.5) containing 1% DMSO. In triplicate, each was diluted 10-fold further when mixed with 50 nM His-PADI4, 0.6 mg/mL BSA and 10 mM CaCl2, in COLDER buffer. With or without one hour of incubation, 10 mM N^α-Benzoyl-L-arginine ethyl ester hydrochloride (BAEE, Merck) was added to initiate the reaction (50 µL final volume). After 30 min at rt, EDTA (50 mM final concentration) was used to quench the reaction and 200 µL of COLDER solution containing 20 mM Diacetyl monoxime/2,3-butanedione monoxime (Merck), 0.5 mM Thiosemicarbazide (Acros Organics), 2.25 M H3PO4, 4.5 M H2SO4 and 1.5 mM NH4Fe(SO4)2.12H2O was added to each well. Samples were incubated for 20 min at 95 °C before measuring absorbance at 540 nm on a CLARIOstar Plus (BMG LABTECH). Data analysis was performed with GraphPad Prism. Data are presented as the average ± standard error of the mean from at least two independent replicates.

[2] = molecular target: T1, PADI4; assay: Surface plasmon resonance (SPR), single cycle kinetics; format: binding; settings: for Ki: k-1/k+1
Protocol: S8. Surface plasmon resonance (SPR)
Using a Biacore S200 (GE Healthcare), biotinylated His-PADI4 (80 nM) was immobilised on a CAP chip (GE Healthcare) to a response unit of approx. 3000. At 25 °C, single cycle kinetics mode was used with 5 samples of a 3-fold dilution series of peptides PADI4_3_H4(2), cP4_2, […]
mM HEPES, 150 mM NaCl, 10 mM CaCl2, 0.05% Tween-20, 0.1% DMSO (pH 7.5). After each cycle, regeneration of the chip was carried out as per the manufacturer’s protocol. Data were analysed with the Biacore S200 Evaluation Software, each in triplicate. Warhead-containing peptides were analysed using the two-state reaction model, with the rate constant for the reverse second step (k-2) set to zero. The equilibrium constant of the reversible binding step, Ki, was calculated as the ratio of k-1/k+1 and the rate constant of the irreversible chemical step, kinact, as k+2. The Arg4, Cit4 and Me4 peptides were fitted using a 1:1 binding model. […]

[3] = molecular target: T1, PADI4; assay: Incubation time-dependent COLDER assay IC50(t), Krippendorff fit; format: biochemical; settings: for IC50: replicates, read-out: apparent IC50; for Ki / kinact: Krippendorff fit of IC50 vs time
Protocol: To determine KI and kinact of covalent peptide inhibitors, COLDER assays were used[52]. Peptide dilutions were prepared using 5-fold dilutions from 500 µM and 300 µM to 0.8 µM and 2.4 µM, respectively, at 1% DMSO in COLDER buffer (50 mM HEPES, 150 mM NaCl and 2 mM DTT, pH 7.5). The 9 peptide dilutions were added to a 96-well plate, alongside a 1% DMSO control. An equal volume of 10 mM BAEE was added to each well and the solution was homogenised by pipette mixing. This was mixed with 50 nM His-PADI4, 0.6 mg/mL BSA and 10 mM CaCl2, in COLDER buffer, to bring the final volume to 300 µL in each well. Alternatively, His-PAD1 (100 nM) /His-PADI2 (100 nM) /His-PADI3 (250 nM) were used. For assays with PADI1 and PADI3, 10 mM N^α-benzoyl-L-arginine methyl […] (BAME) was used as the substrate instead of BAEE[48],[58],[59]. At 15-minute intervals, for 5 timepoints, 50 µL of solution was taken from each well and quenched with 10 µL EDTA (300 mM). 200 µL of COLDER solution containing 20 mM diacetyl monoxime/2,3-butanedione monoxime (Merck), 0.5 mM thiosemicarbazide (Acros Organics), 2.25 M H3PO4, 4.5 M H2SO4 and 1.5 mM NH4Fe(SO4)2.12H2O was added to each well. Samples were incubated for 20 min at 95 °C before measuring absorbance at 540 nm on a CLARIOstar Plus (BMG LABTECH). IC50 values for each time point were determined using non-linear regression with GraphPad Prism. Incubation time–dependent potency IC50(t) against incubation time was fitted to the Krippendorff equation (below) to determine KI and kinact using a Python script[53],[59]. […] IC50t=KI1+S/KM⋅2−2e^−ηIC50⋅kinact⋅t/ηIC50⋅kinact⋅t−1 WhereηIC50=IC50t/KI1+S/KM+IC50t

[4] = 1 h preincubation of peptide and PADI4, 10 mM CaCl2, read-out: IC50 Values 1 h preincubation
[5] = no preincubation of peptide and PADI4, 10 mM CaCl2, read-out: IC50 Values 0 h preincubation
[6] = T=0, values starred, read-out: PADI4 activity normalised to 0.1% DMSO
[7] = T=1, read-out: PADI4 activity normalised to 0.1% DMSO
[8] = T=0, read-out: PADI4 activity normalised to 0.1% DMSO
[9] = each replicate, read-out: k2 / kinact
[10] = two-state reaction model, k+2, read-out: SPR kinact (converted)

Row | Structure (SMILES) | IC50 [1, 4] | IC50 [1, 5] | remaining activity at 0.003 µM [1, 6] | remaining activity at 0.003 µM [1, 7] | remaining activity at 0.01 µM [1, 6] | remaining activity at 0.01 µM [1, 7] | remaining activity at 0.03 µM [1, 8] | remaining activity at 0.1 µM [1, 8] | remaining activity at 0.3 µM [1, 8] | remaining activity at 1 µM [1, 8] | kinact/KI [2] | kinact [2, 9] | kinact [2, 10] | Ki ([2]; two-state reaction model) | kinact/KI [3] | IC50 ([3]; 15 mins) | IC50 ([3]; 30 mins) | IC50 ([3]; 45 mins) | IC50 ([3]; 60 mins) | IC50 ([3]; 75 mins) | other results
1 | N=C(N)NCCC[C@@H]1NC(=O)[C@H](CCCCN)NC(=O)[C@H](CC(N)=O)NC(=O)[C@H](Cc2ccccc2)NC(=O)[C@H](CC(=O)O)NC(=O)[C@H](Cc2c[nH]c3ccccc23)NC(=O)[C@H](CC(N)=O)NC(=O)[C@H](CCCNC(=N)CF)NC(=O)[C@H](Cc2ccc(O)cc2)NC(=O)[C@H](Cc2c[nH]c3ccccc23)NC(=O)[C@@H](Cc2ccc(O)cc2)NC(=O)CSC[C@@H](C(=O)NCC(N)=O)NC1=O [cP4_10, yWY(2)NWDFNKRCG] ({CH2CO}-[dY]WY[Orn(fluoroacetimidoyl)]NWDFNKRCG-NH2; thioether N-12) | 93 ± 2 nM | 3100 ± 10 nM | 93.1% | 98.1% | 92% | 81.1% | 91.3% | 90.6% | 91.5% | 75.7% | 33400 M⁻¹ s⁻¹ | 0.0041 s⁻¹ | 0.00383 s⁻¹ | 120 ± 100 nM | 1450 M⁻¹ s⁻¹ | 7240 nM and 6940 nM and 5530 nM | 3820 nM and 3290 nM and 3600 nM | 2720 nM and 2380 nM and 2640 nM | 2150 nM and 2090 nM and 2330 nM | 1960 nM and 1810 nM and 2180 nM | remaining activity at 0.03 µM [1, 7]: 82.2%; remaining activity at 3 µM [1, 8]: 48.4%; remaining activity at 10 µM [1, 8]: 19.7%; k2 / kinact ([2]; each replicate): 0.0034 s⁻¹; Ki [3]: 1500 ± 300 nM; kinact [3]: 0.00217 s⁻¹
2 | N=C(N)NCCC[C@@H]1NC(=O)[C@H](Cc2ccc(O)cc2)NC(=O)[C@H](Cc2c[nH]cn2)NC(=O)[C@H](CCCNC(=N)CF)NC(=O)[C@H](CC(=O)O)NC(=O)[C@H](CCCNC(=N)N)NC(=O)[C@@H](Cc2ccc(O)cc2)NC(=O)CSC[C@@H](C(=O)NCC(N)=O)NC(=O)[C@H](Cc2ccc(O)cc2)NC(=O)[C@H](CCCCN)NC(=O)[C@@H]2CCCN2C(=O)[C@H](Cc2c[nH]cn2)NC1=O [PADI4_3_H4(2), yRD(2)HYRHPKYCG] ({CH2CO}-[dY]RD[Orn(fluoroacetimidoyl)]HYRHPKYCG-NH2; thioether N-12) | 65 ± 7 nM | – | 103% | 102% | 100% | 83.7% | 102% | 101% | 96.2% | 77.4% | 68000 M⁻¹ s⁻¹ | 0.001 s⁻¹ | 0.00102 s⁻¹ | 15 ± 2 nM | 2480 M⁻¹ s⁻¹ | 5470 nM and 4150 nM and 5260 nM | 2460 nM and 1820 nM and 2000 nM | 1860 nM and 1330 nM and 1520 nM | 1430 nM and 1060 nM and 1160 nM | 1240 nM and 1010 nM and 1090 nM | remaining activity at 0.03 µM [1, 7]: 82.9%; remaining activity at 0.1 µM [1, 7]: 29%; remaining activity at 3 µM [1, 8]: 41.2%; remaining activity at 10 µM [1, 8]: 18.1%; k2 / kinact ([2]; each replicate, listed as P4_3_H4(2)): 0.0013 s⁻¹; Ki [3]: 1100 ± 200 nM; kinact [3]: 0.00267 s⁻¹
3 | CC[C@H](C)[C@H](NC(=O)[C@H](Cc1c[nH]c2ccccc12)NC(=O)[C@H](CCC(=O)O)NC(=O)[C@@H]1CSCC(=O)N[C@H](Cc2ccc(O)cc2)C(=O)N[C@@H](C(C)C)C(=O)N[C@@H](Cc2ccc(O)cc2)C(=O)N[C@@H](CCCNC(=N)CF)C(=O)N[C@@H](CC(=O)O)C(=O)N1)C(=O)N[C@@H](CC(N)=O)C(=O)N[C@@H](CCCNC(=N)N)C(=O)N[C@@H](C)C(=O)NCC(N)=O [cP4_165, yVY(2)DCEWINRAG] ({CH2CO}-[dY]VY[Orn(fluoroacetimidoyl)]DCEWINRAG-NH2; thioether N-6) | 170 ± 10 nM | 11800 ± 4900 nM | 97.2% | 95% | 94.1% | 89% | 97.8% | 99.6% | 99.2% | 97% | 1780 M⁻¹ s⁻¹ | 0.0013 s⁻¹ | 0.0011 s⁻¹ | 620 ± 60 nM | 283 M⁻¹ s⁻¹ | 51700 nM and 33800 nM and 43900 nM | 22500 nM and 16400 nM and 14600 nM | 13.7 µM (2×) and 11.2 µM | 11900 nM and 10000 nM and 8760 nM | 9430 nM and 9540 nM and 8450 nM | remaining activity at 0.3 µM [1, 7]: 24.1%; Ki [3]: 8900 ± 1100 nM; kinact [3]: 0.00267 s⁻¹
4 | N=C(N)NCCC[C@@H]1NC(=O)[C@H](CC(=O)O)NC(=O)[C@H](Cc2ccc(O)cc2)NC(=O)[C@H](CCCCN)NC(=O)[C@H](CO)NC(=O)[C@@H](Cc2ccc(O)cc2)NC(=O)CSC[C@@H](C(=O)NCC(N)=O)NC(=O)[C@H](CC(=O)O)NC(=O)[C@H](CCCNC(=N)N)NC(=O)[C@@H]2CCCN2C(=O)[C@H](CO)NC(=O)[C@H](CCCNC(=N)N)NC1=O [Arg4] ({CH2CO}-[dY]SKYDRRSPRDCG-NH2; thioether N-12) | – | > 100000 nM | – | – | – | – | – | – | – | – | – | – | – | – | – | – | – | – | – | – | remaining activity at 0.3 µM ([1]; no preincubation, read-out: PADI4 activity, normalised (Figure 4b dose-response)): 101%; Kd ([2]; reversible binding, 1:1 binding model): 2000 ± 200 nM
